Test results: ChEMBL document CHEMBL1129675, “New directions in antibacterial research” (1996)
≈ marks a conversion by molar mass, not a printed value. Each block holds one compound with its values, some of them ahead of it. Calls of active or inactive are those of the source. No cut-off for these calls is given here. Starred links: 1 amine or outer side, 2 acyl side, 3 side chain; linkers in the order of their positions; H or OH if unused. Positions of bridges follow the written chain, without caps; N, C: chain ends. Non-standard residues stand in square brackets, D forms with d. Residues, ends and D or L forms follow the SMILES beside them. X1 = O=C([C@@H](N[*:1])c1ccc(O[C@H]2OC(CO)[C@@H](O)[C@@H](O)[C@@H]2O[C@H]2O[C@@H](CO)[C@@H](O)[C@H](O)[C@H]2O)cc1)[*:2]; X4 = CC(C)CC/C=C\C=C/C(=O)NC(CC(N)=O)C(=O)CC(C(=O)[*:1])C(O[*:2])C(N)=O; X2 = CC(C)C/C=C\C=C/C(=O)NC(CC(N)=O)C(=O)CC(C(=O)[*:1])C(O[*:2])C(N)=O; X3 = CCC/C=C\C=C/C(=O)NC(CC(N)=O)C(=O)CC(C(=O)[*:1])C(O[*:2])C(N)=O; Hpg(3-Cl) = N[C@H](C(=O)O)c1ccc(O)c(Cl)c1; Hpg = N[C@H](C(=O)O)c1ccc(O)cc1; Orn = NCCC[C@H](N)C(=O)O

Legend:
Staphylococcus aureus [1] = assay: Antibacterial activity against MRSA was determined; Active; assay type: functional, organism-based
Pseudomonas aeruginosa = assay: Antibacterial activity against Pseudomonas aeruginosa was determined; Active; assay type: functional, organism-based
[2] = Inhibitory activity against Lactobacillus species.; assay type: functional; conditions: Bacteria
[3] = Inhibitory activity against Pediococcus species.; assay type: functional
Enterococcus = assay: Inhibitory activity against Vancomycin resistant enterococci; assay type: functional
[4] = Inhibitory activity against Leuconostoc species.; assay type: functional
Bacteria = assay: Inhibitory activity against Corynebacterium; assay type: functional
Streptococcus pneumoniae = assay: Inhibitory activity against Streptococcus pneumoniae; assay type: functional
Streptococcus pyogenes = assay: Inhibitory activity against Streptococcus pyogenes; assay type: functional
Staphylococcus aureus [5] = assay: Inhibitory activity against MRSA; assay type: functional
Haemophilus influenzae = assay: Inhibitory activity against Haemophilus influenzae; assay type: functional
Moraxella catarrhalis = assay: Inhibitory activity against Moraxella catarrhalis; assay type: functional
Enterococcus faecium = assay: Inhibitory activity against Enterococcus faecium; assay type: functional
Staphylococcus aureus [6] = assay: Inhibitory activity against MSSA; assay type: functional
Bacteroides fragilis = assay: Inhibitory activity against Bacteroides fragilis; assay type: functional
[7] = system: Staphylococcus epidermidis; assay: Inhibitory activity against methicillin-sensitive Staphylococcus epidermidis (MSSE); assay type: functional
[8] = system: Staphylococcus epidermidis; assay: Inhibitory activity against methicillin-resistant Staphylococcus epidermidis (MRSE); assay type: functional
[9] = Inhibitory activity against many clinical relevent pathogen; Range is 5-50 ug/mL; assay type: functional

SMILES: C[C@H](O)[C@H]1C(=O)N2C(C(=O)[O-])=C(Sc3nc(-c4cc[n+](CC(N)=O)cc4)cs3)[C@H](C)[C@H]12
Activity (Staphylococcus aureus [1]): Active

SMILES: Cc1nc(SCC2=C(C(=O)O)N3C(=O)[C@@H](NC(=O)/C(=N\OCc4cc(=O)c(O)cn4O)c4csc(N)n4)[C@H]3CS2)sc1C(=O)O
Activity (Pseudomonas aeruginosa): Active

SMILES: CC(C)C/C=C\C=C/C(=O)NC(CC(N)=O)C(=O)CC1C(=O)N[C@@H](c2ccc(O)cc2)C(=O)N[C@@H](CCCN)C(=O)N[C@@H]([C@@H](C)O)C(=O)N[C@@H](c2ccc(O)cc2)C(=O)N[C@@H](c2ccc(O)cc2)C(=O)N[C@@H]([C@@H](C)O)C(=O)N[C@@H](Cc2ccccc2)C(=O)N[C@@H](CCCN)C(=O)N[C@@H](c2ccc(O[C@H]3OC(CO)[C@@H](O)[C@@H](O)[C@@H]3O[C@H]3O[C@@H](CO)[C@@H](O)[C@H](O)[C@H]3O)cc2)C(=O)N[C@@H]([C@@H](C)O)C(=O)N[C@@H](c2ccc(O)cc2)C(=O)NCC(=O)N[C@@H](CC(C)C)C(=O)N[C@@H](C)C(=O)N[C@@H](c2ccc(O)c(Cl)c2)C(=O)OC1C(N)=O (some centres undefined) ([Hpg][Orn]T[Hpg][Hpg]TF[Orn][X1]T[Hpg]GLA[Hpg(3-Cl)]; linker N-C via X2)
MIC90 [2]: ≤ 0.25 µg/mL
MIC90 [3]: ≤ 0.25 µg/mL
MIC90 (Enterococcus): 0.5 µg/mL (≈ 0.196 µM)
MIC90 [4]: ≤ 0.25 µg/mL

SMILES: CCC/C=C\C=C/C(=O)NC(CC(N)=O)C(=O)CC1C(=O)N[C@@H](c2ccc(O)cc2)C(=O)N[C@@H](CCCN)C(=O)N[C@@H]([C@@H](C)O)C(=O)N[C@@H](c2ccc(O)cc2)C(=O)N[C@@H](c2ccc(O)cc2)C(=O)N[C@@H]([C@@H](C)O)C(=O)N[C@@H](Cc2ccccc2)C(=O)N[C@@H](CCCN)C(=O)N[C@@H](c2ccc(O[C@H]3OC(CO)[C@@H](O)[C@@H](O)[C@@H]3O[C@H]3O[C@@H](CO)[C@@H](O)[C@H](O)[C@H]3O)cc2)C(=O)N[C@@H]([C@@H](C)O)C(=O)N[C@@H](c2ccc(O)cc2)C(=O)NCC(=O)N[C@@H](CC(C)C)C(=O)N[C@@H](C)C(=O)N[C@@H](c2ccc(O)c(Cl)c2)C(=O)OC1C(N)=O (some centres undefined) ([Hpg][Orn]T[Hpg][Hpg]TF[Orn][X1]T[Hpg]GLA[Hpg(3-Cl)]; linker N-C via X3)
MIC90 [2]: ≤ 0.25 µg/mL
MIC90 [3]: ≤ 0.25 µg/mL
MIC90 (Enterococcus): 0.5 µg/mL (≈ 0.197 µM)
MIC90 [4]: ≤ 0.25 µg/mL

SMILES: CC(C)CC/C=C\C=C/C(=O)NC(CC(N)=O)C(=O)CC1C(=O)N[C@@H](c2ccc(O)cc2)C(=O)N[C@@H](CCCN)C(=O)N[C@@H]([C@@H](C)O)C(=O)N[C@@H](c2ccc(O)cc2)C(=O)N[C@@H](c2ccc(O)cc2)C(=O)N[C@@H]([C@@H](C)O)C(=O)N[C@@H](Cc2ccccc2)C(=O)N[C@@H](CCCN)C(=O)N[C@@H](c2ccc(O[C@H]3OC(CO)[C@@H](O)[C@@H](O)[C@@H]3O[C@H]3O[C@@H](CO)[C@@H](O)[C@H](O)[C@H]3O)cc2)C(=O)N[C@@H]([C@@H](C)O)C(=O)N[C@@H](c2ccc(O)cc2)C(=O)NCC(=O)N[C@@H](CC(C)C)C(=O)N[C@@H](C)C(=O)N[C@@H](c2ccc(O)c(Cl)c2)C(=O)OC1C(N)=O (some centres undefined) ([Hpg][Orn]T[Hpg][Hpg]TF[Orn][X1]T[Hpg]GLA[Hpg(3-Cl)]; linker N-C via X4)
MIC90 [2]: ≤ 0.25 µg/mL
MIC90 [3]: ≤ 0.25 µg/mL
MIC90 (Enterococcus): 0.5 µg/mL (≈ 0.195 µM)
MIC90 [4]: ≤ 0.25 µg/mL

SMILES: CC(=O)NC[C@H]1CN(c2ccc(N3CCN(C(=O)CO)CC3)c(F)c2)C(=O)O1 [EPEREZOLID]
MIC90 (Bacteria): 0.5 µg/mL (≈ 1.27 µM)
MIC90 (Streptococcus pneumoniae): 0.5 µg/mL (≈ 1.27 µM)
MIC90 (Streptococcus pyogenes): 1 µg/mL (≈ 2.54 µM)
MIC90 (Staphylococcus aureus [5]): 4 µg/mL (≈ 10.1 µM)
MIC90 (Haemophilus influenzae): 16 µg/mL (≈ 40.6 µM)
MIC90 (Moraxella catarrhalis): 4 µg/mL (≈ 10.1 µM)
MIC90 (Enterococcus faecium): 2 µg/mL (≈ 5.07 µM)
MIC90 (Staphylococcus aureus [6]): 4 µg/mL (≈ 10.1 µM)
MIC90 (Bacteroides fragilis): 16 µg/mL (≈ 40.6 µM)
MIC90 [7]: 1 µg/mL (≈ 2.54 µM)
MIC90 [8]: 1 µg/mL (≈ 2.54 µM)

SMILES: CC(=O)NC[C@H]1CN(c2ccc(N3CCOCC3)c(F)c2)C(=O)O1 [LINEZOLID]
MIC90 (Bacteria): 0.5 µg/mL (≈ 1.48 µM)
MIC90 (Streptococcus pneumoniae): 1 µg/mL (≈ 2.96 µM)
MIC90 (Streptococcus pyogenes): 2 µg/mL (≈ 5.93 µM)
MIC90 (Staphylococcus aureus [5]): 4 µg/mL (≈ 11.9 µM)
MIC90 (Haemophilus influenzae): 16 µg/mL (≈ 47.4 µM)
MIC90 (Moraxella catarrhalis): 4 µg/mL (≈ 11.9 µM)
MIC90 (Enterococcus faecium): 4 µg/mL (≈ 11.9 µM)
MIC90 (Staphylococcus aureus [6]): 4 µg/mL (≈ 11.9 µM)
MIC90 (Bacteroides fragilis): 4 µg/mL (≈ 11.9 µM)
MIC90 [7]: 2 µg/mL (≈ 5.93 µM)
MIC90 [8]: 2 µg/mL (≈ 5.93 µM)

SMILES: CC[C@H](C)[C@H](NC(=O)CN)C(=O)NCC(=O)N[C@@H](CCCCN)C(=O)N[C@@H](Cc1ccccc1)C(=O)N[C@@H](CC(C)C)C(=O)N[C@@H](Cc1c[nH]cn1)C(=O)N[C@@H](CO)C(=O)N[C@@H](C)C(=O)N[C@@H](CCCCN)C(=O)N[C@@H](CCCCN)C(=O)N[C@@H](Cc1ccccc1)C(=O)NCC(=O)N[C@@H](CCCCN)C(=O)N[C@@H](C)C(=O)N[C@@H](Cc1ccccc1)C(=O)N[C@H](C(=O)NCC(=O)N[C@@H](CCC(=O)O)C(=O)N[C@H](C(=O)N[C@@H](CCSC)C(=O)N[C@@H](CC(N)=O)C(=O)N[C@@H](CO)C(=O)O)[C@@H](C)CC)C(C)C [MAGAININ 2] (H-GIGKFLHSAKKFGKAFVGEIMNS-OH)
MIC [9]: 5 µg/mL (≈ 2.03 µM)

MIC [9]: 5 µg/mL (≈ 2.07 µM)
SMILES: CC[C@H](C)[C@H](NC(=O)CN)C(=O)NCC(=O)N[C@@H](CCCCN)C(=O)N[C@@H](Cc1ccccc1)C(=O)N[C@@H](CC(C)C)C(=O)N[C@@H](Cc1cnc[nH]1)C(=O)N[C@@H](CO)C(=O)N[C@@H](C)C(=O)NCC(=O)N[C@@H](CCCCN)C(=O)N[C@@H](Cc1ccccc1)C(=O)NCC(=O)N[C@@H](CCCCN)C(=O)N[C@@H](C)C(=O)N[C@@H](Cc1ccccc1)C(=O)N[C@H](C(=O)NCC(=O)N[C@@H](CCC(=O)O)C(=O)N[C@H](C(=O)N[C@@H](CCSC)C(=O)N[C@@H](CCCCN)C(=O)N[C@@H](CO)C(=O)O)[C@@H](C)CC)C(C)C [MAGAININ I] (H-GIGKFLHSAGKFGKAFVGEIMKS-OH)

MIC90 (Staphylococcus aureus [5]): 16 µg/mL (≈ 35 µM)
SMILES: CN(C)c1ccc(O)c2c1C[C@H]1C[C@H]3[C@H](N(C)C)C(O)=C(C(N)=O)C(=O)[C@@]3(O)C(O)=C1C2=O [MINOCYCLINE]
